# From patent US11033539B2, “Compounds of formulas (VII), (VIII), (IX), (XI), (XII), (XIII), and (XIV) as muscarinic receptor 4(M4) antagonists for treating neurological diseases” (Neurocrine Biosciences, Inc., priority 2015, dated 2021)
# Target: human M4 receptor (Homo sapiens (Human), UniProt P08173)
# Experiment: Radioligand (tritiated N-methylscopolamine) binding assay, M4
# Conditions: Ki against the M4 receptor; membranes from CHO cells expressing human M4; tritiated N-methylscopolamine 1.5 nM; read-out: Ki
# How it was run: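 Ki from displacement of 1.5 nM [3H]N-methylscopolamine on membranes of CHO cells expressing each human receptor. Twelve compound concentrations (10 μM to […]), 90 min at 37° C in 50 mM HEPES, 100 mM NaCl, 5 mM MgCl2, 1 mM EDTA, pH 7.4. Bound ligand was captured by PEI-treated glass-fiber filtration and counted.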
# Sequence of human M4 receptor (P08173 whole entry): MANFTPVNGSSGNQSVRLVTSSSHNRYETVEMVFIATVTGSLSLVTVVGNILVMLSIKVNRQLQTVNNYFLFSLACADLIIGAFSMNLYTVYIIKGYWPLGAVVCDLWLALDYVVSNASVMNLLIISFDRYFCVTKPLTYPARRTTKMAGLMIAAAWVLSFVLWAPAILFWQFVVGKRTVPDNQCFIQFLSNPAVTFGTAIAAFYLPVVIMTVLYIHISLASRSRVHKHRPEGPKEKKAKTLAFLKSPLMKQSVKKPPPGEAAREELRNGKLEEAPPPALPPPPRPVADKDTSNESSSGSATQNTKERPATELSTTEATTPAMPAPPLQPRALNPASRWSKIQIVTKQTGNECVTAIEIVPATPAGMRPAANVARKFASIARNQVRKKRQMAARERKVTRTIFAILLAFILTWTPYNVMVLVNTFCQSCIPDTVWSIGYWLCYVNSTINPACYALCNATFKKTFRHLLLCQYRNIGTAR
row,Compound,Ki [nM]
1,"C[C@@H]1CN(c2cc(F)c(F)c(F)c2)CCN1C(=O)NCCN(C)[C@@H]1C[C@H](CO)N(Cc2ccccc2)C1 [7-13, (2R)-N-(2-{[(3R,5R)-1-benzyl-5-(hydroxymethyl)pyrrolidin-3-yl](methyl)amino}ethyl)-2-methyl-4-(3,4,5-trifluorophenyl)piperazine-1-carboxamide]",100 to 1000
2,"C[C@@H]1CN(c2ncc(C#N)cn2)C[C@H](C)N1C(=O)NCCC1CCN(Cc2ncccn2)CC1 [6-58, (2R,6S)-4-(5-cyanopyrimidin-2-yl)-2,6-dimethyl-N-{2-[1-(pyrimidin-2-ylmethyl)piperidin-4-yl]ethyl}piperazine-1-carboxamide]",100 to 1000
3,"C[C@@H]1CN(c2nc(C#N)cc(C#N)n2)CCN1C(=O)NCCC1CCN(Cc2ccccc2)CC1 [4-38, (2R)-N-[2-(1-benzylpiperidin-4-yl)ethyl]-4-(4,6-dicyanopyrimidin-2-yl)-2-methylpiperazine-1-carboxamide]",10 to 100
4,"C[C@@H]1CN(c2cc(F)c(F)c(F)c2)CCN1C(=O)NCCC1CCN(Cc2ccc(C(N)=O)cc2)CC1 [6-16, (2R)-N-(2-{1-[(4-carbamoylphenyl)methyl]piperidin-4-yl}ethyl)-2-methyl-4-(3,4,5-trifluorophenyl)piperazine-1-carboxamide]",10 to 100
5,"C[C@@H]1CN(c2nccc(C#N)n2)CCN1C(=O)NCCC1CCN(Cc2ccccc2)CC1 [3-15, (2R)-N-[2-(1-benzylpiperidin-4-yl)ethyl]-4-(4-cyanopyrimidin-2-yl)-2-methylpiperazine-1-carboxamide]",10 to 100
6,"C[C@@H]1CN(c2cc(F)c(F)c(F)c2)CCN1C(=O)NCCC1CCN(Cc2cccc(F)c2)CC1 [6-10, (2R)-N-(2-{1-[(3-fluorophenyl)methyl]piperidin-4-yl}ethyl)-2-methyl-4-(3,4,5-trifluorophenyl)piperazine-1-carboxamide]",10 to 100
7,"O=C(NCCC1CCN(Cc2ccccc2)CC1)N1CCN(c2cccc(Cl)c2)CC1 [8-11, N-[2-(1-benzylpiperidin-4-yl)ethyl]-4-(3-chlorophenyl)piperazine-1-carboxamide]",10 to 100
8,"C[C@@H]1CN(c2ncc(F)c(Cl)n2)CCN1C(=O)NCCC1CCN(Cc2ccccc2)CC1 [5-9, (2R)-N-[2-(1-benzylpiperidin-4-yl)ethyl]-4-(4-chloro-5-fluoropyrimidin-2-yl)-2-methylpiperazine-1-carboxamide]",100 to 1000
9,"C[C@@H]1CN(c2ccc(F)c(C#N)c2)CCN1C(=O)NCCC1(CO)CCN(Cc2ccccc2)CC1 [7-2, (2R)-N-{2-[1-benzyl-4-(hydroxymethyl)piperidin-4-yl]ethyl}-4-(3-cyano-4-fluorophenyl)-2-methylpiperazine-1-carboxamide]",10 to 100
10,"CN(C(=O)NCCC1CCN(Cc2ccccc2)CC1)C1CCN(c2ncc(C(F)(F)F)cc2Cl)C1 (stereo not shown) [8-16, 1-[2-(1-benzylpiperidin-4-yl)ethyl]-3-{1-[3-chloro-5-(trifluoromethyl)pyridin-2-yl]pyrrolidin-3-yl}-3-methylurea]",10 to 100
11,"Nc1nc(N2CCN(C(=O)NCCC3CCN(Cc4ccccc4)CC3)CC2)ncc1F [5-34, 4-(4-amino-5-fluoropyrimidin-2-yl)-N-[2-(1-benzylpiperidin-4-yl)ethyl]piperazine-1-carboxamide]",100 to 1000
12,"COc1ccc(C2CCN(C(=O)NCCC3CCN(Cc4ccccc4)CC3)CC2)cc1 [8-24, N-[2-(1-benzylpiperidin-4-yl)ethyl]-4-(4-methoxyphenyl)piperidine-1-carboxamide]",100 to 1000
13,"O=C(NCCC1CCN(Cc2ccccc2)CC1)N1CCN(c2ccccc2F)CC1 [8-34, N-[2-(1-benzylpiperidin-4-yl)ethyl]-4-(2-fluorophenyl)piperazine-1-carboxamide]",100 to 1000
14,"C[C@@H]1CN(c2cc(F)c(F)c(F)c2)CCN1C(=O)NCCC1CCN(Cc2ccc3c(c2)OCCO3)CC1 [6-9, (2R)-N-{2-[1-(2,3-dihydro-1,4-benzodioxin-6-ylmethyl)piperidin-4-yl]ethyl}-2-methyl-4-(3,4,5-trifluorophenyl)piperazine-1-carboxamide]",10 to 100
15,"O=C(NCCC1CCN(Cc2ccccc2)CC1)N1CCN(c2ncc(C(F)(F)F)cc2Cl)CC1 [8-15, N-[2-(1-benzylpiperidin-4-yl)ethyl]-4-[3-chloro-5-(trifluoromethyl)pyridin-2-yl]piperazine-1-carboxamide]",10 to 100
16,"C[C@@H]1CN(c2ccc(C#N)s2)CCN1C(=O)NCCC1CCN(Cc2ccccc2)CC1 [4-44, (2R)-N-[2-(1-benzylpiperidin-4-yl)ethyl]-4-(5-cyanothiophen-2-yl)-2-methylpiperazine-1-carboxamide]",10 to 100

# The remaining lines, values ahead:
row,Ki [nM],Compound
1,10 to 100,"O=C(NCCC1CCN(Cc2ccccc2)CC1)C1CCN(c2ccc(OC(F)(F)F)cc2F)CC1 [10-37, N-[2-(1-benzylpiperidin-4-yl)ethyl]-1-[2-fluoro-4-(trifluoromethoxy)phenyl]piperidine-4-carboxamide]"
2,10 to 100,C[C@@H]1CN(c2ccnc(F)c2)CCN1C(=O)NCCC1CCN(Cc2ccccc2)CC1 [22-18]
3,100 to 1000,"Cc1c(C(=O)NCCC2CCN(Cc3ccccc3)CC2)cnc2cc(-c3cccs3)nn12 [17-7, N-[2-(1-benzylpiperidin-4-yl)ethyl]-7-methyl-2-(thiophen-2-yl)pyrazolo[1,5-a]pyrimidine-6-carboxamide]"
4,100 to 1000,C[C@@H]1CN(c2ncc(C(=O)NCC3CC3)cn2)C[C@H](C)N1C(=O)NCCC1CCN(Cc2ccccc2)CC1 [27-5]
5,10 to 100,"N#Cc1ccc(N2CCC(C(=O)NCCC3CCN(Cc4ccccc4)CC3)CC2)cc1F [10-78, N-[2-(1-benzylpiperidin-4-yl)ethyl]-1-(4-cyano-3-fluorophenyl)piperidine-4-carboxamide]"
6,10 to 100,"CCCn1c(=O)c2nc(-c3ccc(C(=O)NCCC4CCN(Cc5ccccc5)CC4)cc3)[nH]c2n(CCC)c1=O [9-45, N-[2-(1-benzylpiperidin-4-yl)ethyl]-4-(2,6-dioxo-1,3-dipropyl-2,3,6,9-tetrahydro-1H-purin-8-yl)benzamide]"
7,10 to 100,"O=C(NCCC1(CO)CCN(Cc2ccccc2)CC1)C1CCN(c2cccc(OC(F)(F)F)c2)CC1 [9-11, N-{2-[1-benzyl-4-(hydroxymethyl)piperidin-4-yl]ethyl}-1-[3-(trifluoromethoxy)phenyl]piperidine-4-carboxamide]"
8,10 to 100,"C[C@@H]1CN(c2cnc(C(F)(F)F)nc2)C[C@H](C)N1C(=O)NCCC1CCN(Cc2ccccc2)CC1 [22-1, (2R,6S)—N-[2-(1-benzylpiperidin-4-yl)ethyl]-2,6-dimethyl-4-[2-(trifluoromethyl)pyrimidin-5-yl]piperazine-1-carboxamide]"
9,10 to 100,"O=C(NCCC1CCN(Cc2ccccc2)CC1)c1ccn2cc(-c3ccc(OC(F)(F)F)cc3)nc2c1 [9-25, N-[2-(1-benzylpiperidin-4-yl)ethyl]-2-[4-(trifluoromethoxy)phenyl]imidazo[1,2-a]pyridine-7-carboxamide]"
10,100 to 1000,"COc1ccc(N2CCC(C(=O)NCCC3CCN(Cc4ccccc4)CC3)CC2)nc1 [10-28, N-[2-(1-benzylpiperidin-4-yl)ethyl]-1-(5-methoxypyridin-2-yl)piperidine-4-carboxamide]"
11,100 to 1000,C[C@@H]1CN(c2ncc(C#N)cn2)C[C@H](C)N1C(=O)NCCC1CCN(Cc2ccccn2)CC1 [21-3]
12,100 to 1000,"O=C(NCCC1CCN(Cc2cccc3c2OCCO3)CC1)c1ccc(Oc2ccccc2)cc1 [11-18, N-{2-[1-(2,3-dihydro-1,4-benzodioxin-5-ylmethyl)piperidin-4-yl]ethyl}-4-phenoxybenzamide]"
13,10 to 100,"C[C@@H]1CN(c2ncc(C(=O)NC3CC3)cn2)C[C@H](C)N1C(=O)NCCC1CCN(Cc2ccccc2)CC1 [27-1, 2-[(3R,5S)-4-{[2-(1-benzylpiperidin-4-yl)ethyl]carbamoyl}-3,5-dimethylpiperazin-1-yl]-N-cyclopropylpyrimidine-5-carboxamide]"
14,10 to 100,"N#Cc1ccc(-c2ccc(C(=O)NCCC3CCN(Cc4ccccc4)CC3)cc2)cc1 [9-30, N-[2-(1-benzylpiperidin-4-yl)ethyl]-4-(4-cyanophenyl)benzamide]"
15,100 to 1000,"O=C(CCC1CCN(Cc2ccccc2)CC1)NC1CCN(c2cccc(OC(F)(F)F)c2)CC1 [9-50, 3-(1-benzylpiperidin-4-yl)-N-{1-[3-(trifluoromethoxy)phenyl]piperidin-4-yl}propanamide]"
16,100 to 1000,"O=C(NCCC1CCN(Cc2ccccc2)CC1)C1(O)CCN(c2ccc(OC(F)(F)F)cn2)CC1 [10-61, N-[2-(1-benzylpiperidin-4-yl)ethyl]-4-hydroxy-1-[5-(trifluoromethoxy)pyridin-2-yl]piperidine-4-carboxamide]"
17,100 to 1000,"CC(c1ccccc1)N1CCC(CCNC(=O)c2ccc(OCc3ccccc3)cc2)CC1 (stereo not shown) [11-14, 4-(benzyloxy)-N-{2-[1-(1-phenylethyl)piperidin-4-yl]ethyl}benzamide]"
18,100 to 1000,"O=C(NCCC1CCN(Cc2cccc3c2OCC3)CC1)C1CCN(c2ccc(OC(F)(F)F)cc2)CC1 [11-29, N-{2-[1-(2,3-dihydro-1-benzofuran-7-ylmethyl)piperidin-4-yl]ethyl}-1-[4-(trifluoromethoxy)phenyl]piperidine-4-carboxamide]"
19,10 to 100,"CN(CCNC(=O)C1CCN(c2ccc(OC(F)(F)F)cc2)CC1)[C@H]1CCN(Cc2ccccc2)C1 [9-17, N-(2-{[(3S)-1-benzylpyrrolidin-3-yl](methyl)amino}ethyl)-1-[4-(trifluoromethoxy)phenyl]piperidine-4-carboxamide]"
20,10 to 100,"O=C(NCCC1CCN(Cc2cccc3c2OCCO3)CC1)c1ccc(OCc2ccccc2)cc1 [11-7, 4-(benzyloxy)-N-{2-[1-(2,3-dihydro-1,4-benzodioxin-5-ylmethyl)piperidin-4-yl]ethyl}benzamide]"
21,100 to 1000,Cc1c(C(=O)NCCC2CCN(Cc3ccc(O)cc3)CC2)cnc2cc(-c3ccccc3)nn12 [19-8]
